Data published in PMC11961743 (Nature Communications, 2025).

System: SdPT
Assay: HPLC prenylation assay, yeast microsomes
Format: biochemical, Saposhnikovia divaricata
Details: saturating DMAPP and MgCl2; optimum pH 10.0, 45 °C

Km: 29.1 µM
Compound: Cc1cc(=O)c2c(O)cc(O)cc2o1 [compound 2, noreugenin]
